Consider 8 molecules from patent US12674058B2, “Compound, photosensitive resin composition comprising same, photosensitive resin film, color filter and CMOS image sensor” (SAMSUNG SDI CO., LTD., priority 2021, dated 2026).

The data set can be described thus: Measurement of solubility in dilution solvent (PGMEA). The data set is classed as physicochemical. The settings on record: 0.5 g compound in PGMEA, stirred at 25° C. for 1 hour. As for the experimental part: 0.5 g of each compound Synthesis Examples 1 to 5 and Comparative Synthesis Examples 1 to 5 was added to a dilution solvent (PGMEA), and each corresponding solution was stirred with Mix-Rotar VMR-5 (Luchi Seieido Co., Ltd.) at 25° C. for 1 hour and then, evaluated with respect to solubility, and the results are shown in Table 2.
Solubility Evaluation Criteria
• 10 wt % or more of the compound (solute) was dissolved in the total amount of the diluent: ∘ • Less than 10 wt % of the compound (solute) was dissolved in the total amount of diluent: X
On to `Cc1cccc(C)c1N(CCCN1C(=O)c2ccccc2C1=O)C1=CC2Oc3cc(N(C)CCN(C)c4ccc5c(-c6ccccc6S(=O)(=O)[O-])c6ccc(N(CCCN7C(=O)c8ccccc8C7=O)c7c(C)cccc7C)cc6[o+]c5c4)ccc3C(c3ccccc3S(=O)(=O)O)=C2C=C1` (centres unmarked) [Comparative Synthesis Example 3, reference compound], for which the Solubility result is on record as “X (Less than 10 wt % of the compound (solute) was dissolved in the total amount of diluent)”.
As for `Cc1cccc(C)c1N(CCCN1C(=O)c2ccccc2C1=O)C1=CC2Oc3cc(N(C)CCCCCCCCCCCN(C)c4ccc5c(-c6ccccc6S(=O)(=O)[O-])c6ccc(N(CCCN7C(=O)c8ccccc8C7=O)c7c(C)cccc7C)cc6[o+]c5c4)ccc3C(c3ccccc3S(=O)(=O)O)=C2C=C1` (centres unmarked) [Comparative Synthesis Example 4, reference compound], the entry is “X (Less than 10 wt % of the compound (solute) was dissolved in the total amount of diluent)”.
As for `CCN(CCCCCCN(CC)c1ccc2c(-c3ccccc3S(=O)(=O)[O-])c3ccc(N(CN4C(=O)c5ccccc5C4=O)c4c(C)cccc4C)cc3[o+]c2c1)c1ccc2c(c1)OC1C=C(N(CN3C(=O)c4ccccc4C3=O)c3c(C)cccc3C)C=CC1=C2c1ccccc1S(=O)(=O)O` (centres unmarked) [Comparative Synthesis Example 5, reference compound], the entry is “X (Less than 10 wt % of the compound (solute) was dissolved in the total amount of diluent)”; as for `CCN(CCCCCCN(CC)c1ccc2c(-c3ccccc3S(=O)(=O)[O-])c3ccc(N(CCCN4C(=O)c5ccccc5C4=O)c4c(C)cccc4C)cc3[o+]c2c1)c1ccc2c(c1)OC1C=C(N(CCCN3C(=O)c4ccccc4C3=O)c3c(C)cccc3C)C=CC1=C2c1ccccc1S(=O)(=O)O` (centres unmarked) [Synthesis Example 1], “◯”; as for `CCN(CCCCCCN(CC)c1ccc2c(-c3ccccc3S(=O)(=O)[O-])c3ccc(N(CCCCN4C(=O)c5ccccc5C4=O)c4c(C)cccc4C)cc3[o+]c2c1)c1ccc2c(c1)OC1C=C(N(CCCCN3C(=O)c4ccccc4C3=O)c3c(C)cccc3C)C=CC1=C2c1ccccc1S(=O)(=O)O` (centres unmarked) [Synthesis Example 2], “◯”.
As for `CCN(CCCCCCN(CC)c1ccc2c(-c3ccccc3S(=O)(=O)[O-])c3ccc(N(CCN4C(=O)c5ccccc5C4=O)c4c(C)cccc4C)cc3[o+]c2c1)c1ccc2c(c1)OC1C=C(N(CCN3C(=O)c4ccccc4C3=O)c3c(C)cccc3C)C=CC1=C2c1ccccc1S(=O)(=O)O` (centres unmarked) [Synthesis Example 3], the entry is “◯”; as for `CCN(CCCCCCN(CC)c1ccc2c(-c3ccccc3S(=O)(=O)[O-])c3ccc(N(CCCN4C(=O)c5ccccc5C4=O)c4ccccc4C)cc3[o+]c2c1)c1ccc2c(c1)OC1C=C(N(CCCN3C(=O)c4ccccc4C3=O)c3ccccc3C)C=CC1=C2c1ccccc1S(=O)(=O)O` (centres unmarked) [Synthesis Example 4], “◯”; as for `Cc1cccc(C)c1N(CCCN1C(=O)c2ccccc2C1=O)C1=CC2Oc3cc(N(C)CCCN(C)c4ccc5c(-c6ccccc6S(=O)(=O)[O-])c6ccc(N(CCCN7C(=O)c8ccccc8C7=O)c7c(C)cccc7C)cc6[o+]c5c4)ccc3C(c3ccccc3S(=O)(=O)O)=C2C=C1` (centres unmarked) [Synthesis Example 5], “◯”.
